# Data from US11278024B2 (priority 2017, dated 2022).
# Marks after values point to notes of the source that are not given here.
# Experiments:
# Assay type in all cases: in vivo
# tomato seedlings = experiment: Phytotoxicity on tomato seedlings in pots, drenching treatment, observed with the naked eye; details: 50 ml drench, 1 week after treatment
# Procedure: Sterilized soil was uniformly mixed, 300 g thereof was then placed in each pot, and tomato seedlings not infected with root-knot nematodes were transplanted thereto.
# Sterilized soil was uniformly mixed, 300 g thereof was then placed in each pot, and tomato seedlings not infected with root-knot nematodes were transplanted thereto. The sample prepared in Example 4 was diluted to a standard amount or a multiple thereof for each treatment group, and then 50 ml thereof was used for drenching treatment.
# root-lesion nematodes = experiment: Petri dish nematocidal activity on root-lesion nematodes; details: geraniol 2,000 ppm; for Number of killed nematodes: 15 root-lesion nematodes
# Text: (§1) Petri dishes, followed by measurement of nematocidal activity.
# [1] = tested on: root-knot nematodes (Meloidogyne spp.); experiment: Petri dish nematocidal activity on hatched root-knot nematodes; details: for Number of killed root-knot nematodes: 15 nematodes; for Nematocidal efficiency (%): within 3 days; for Nematocidal efficiency on root-knot nematodes (%): geraniol concentration 685 ppm
# Procedure: The nematodes used in the experiments were Meloidogyne spp. (hatched from eggs from infected roots of melons from farms in Seongju-gun, Gyeongsangbuk-do, Korea), and were propagated using tomato plants from Ecowin Co. Ltd. and used for experiments.
# The tomato roots infected with root-knot nematodes were washed with running water and were then cut to a size of about 1 cm, after which 50 g of the cut roots was placed in a 500 ml round-bottom flask containing 200 ml of 0.5% sodium hypochloride (NaOCl), stopped with a rubber stopper, and shaken vigorously for 3 min to sterilize the roots and at the same time burst the egg bag. Thereafter, the solution was passed through a sieve in which 200 mesh was superimposed on 500 mesh, and washed with distilled water, so the eggs of the root-knot nematodes from which the NaOCl solution was removed were recovered.
# Next, the eggs of the root-knot nematodes thus recovered were surface-sterilized with 0.5% NaOCl for 10 min, washed thoroughly with sterile distilled water, placed in a phosphate buffer (1%) containing sterilized normal saline, and hatched in an incubator at 25° C.
# Thereafter, […], 2 to 3 ml thereof was poured into a Petri dish, after which 15 hatched root-knot nematodes were placed in the Petri dish, and nematocidal activity was measured and the results thereof are shown in Table 1 below.
# Nematocidal activity on root-knot nematodes (treatment concentration: […]) was evaluated in the same manner as in Example 1, with the exception that Ostericum koreanum, clove, Myristica fragrans, Acorus gramineus, Kaempferia galanga and Amomum cardamomum L. extracts were used, in lieu of the naturally derived materials. Here, Ostericum koreanum, clove, Myristica fragrans, Acorus gramineus, Kaempferia galanga and Amomum cardamomum L. were purchased from a medicinal plant retailer located in the Daegu area and then extracted using ethanol according to a typical method. Specifically, each medicine was finely crushed, mixed with ethanol at a ratio of 1:5, and extracted at 180 rpm at room temperature for 48 hr, after which as much ethanol as possible was concentrated using a concentrator.
# Nematocidal activity on root-knot nematodes was evaluated in the same manner as in Example 1, with the exception that a neem extract was used in lieu of the naturally derived materials.
# spiral nematodes = experiment: Petri dish nematocidal activity on spiral nematodes; details: geraniol 2,000 ppm; for Number of killed nematodes: 15 spiral nematodes
# Text: as §1
# cyst nematodes = experiment: Petri dish nematocidal activity on cyst nematodes; details: geraniol 2,000 ppm; for Number of killed nematodes: 15 cyst nematodes
# Text: as §1
compound,measurement,setting,value
"CC(C)=CCC/C(C)=C/CO [Geraniol, geraniol]",Extent of phytotoxicity (0-5),tomato seedlings; 100 ppm,0
same,Phytotoxicity symptom,tomato seedlings; 100 ppm,No
same,Extent of phytotoxicity (0-5),tomato seedlings; 200 ppm,0
same,Phytotoxicity symptom,tomato seedlings; 200 ppm,No
same,Extent of phytotoxicity (0-5),tomato seedlings; 330 ppm,0
same,Phytotoxicity symptom,tomato seedlings; 330 ppm,No
same,Extent of phytotoxicity (0-5),tomato seedlings; 500 ppm,0
same,Phytotoxicity symptom,tomato seedlings; 500 ppm,No
same,Extent of phytotoxicity (0-5),"tomato seedlings; 1,000 ppm",0
same,Phytotoxicity symptom,"tomato seedlings; 1,000 ppm",No
same,Extent of phytotoxicity (0-5),"tomato seedlings; 2,000 ppm",0
same,Phytotoxicity symptom,"tomato seedlings; 2,000 ppm",No
same,Extent of phytotoxicity (0-5),"tomato seedlings; 3,000 ppm",0
same,Phytotoxicity symptom,"tomato seedlings; 3,000 ppm",No
same,Extent of phytotoxicity (0-5),"tomato seedlings; 4,000 ppm",5
same,Phytotoxicity symptom,"tomato seedlings; 4,000 ppm",Withered
same,Extent of phytotoxicity (0-5),"tomato seedlings; 5,000 ppm",5
same,Phytotoxicity symptom,"tomato seedlings; 5,000 ppm",Withered
same,Extent of phytotoxicity (0-5),"tomato seedlings; 10,000 ppm",5
same,Phytotoxicity symptom,"tomato seedlings; 10,000 ppm",Withered
same,Extent of phytotoxicity (0-5),"tomato seedlings; 20,000 ppm",5
same,Phytotoxicity symptom,"tomato seedlings; 20,000 ppm",Withered
same,Number of killed nematodes,root-lesion nematodes; 1 day,14^a
same,Number of killed nematodes,root-lesion nematodes; 2 days,15
same,Nematocidal efficiency,root-lesion nematodes; within 3 days,100%
same,Number of killed root-knot nematodes,"[1]; 100 ppm, 1 day",5
same,Number of killed root-knot nematodes,"[1]; 100 ppm, 2 days",7
same,Number of killed root-knot nematodes,"[1]; 100 ppm, 3 days",7
same,Nematocidal efficiency (%),[1]; 100 ppm,46.7%
same,Number of killed root-knot nematodes,"[1]; 200 ppm, 1 day",5
same,Number of killed root-knot nematodes,"[1]; 200 ppm, 2 days",7
same,Number of killed root-knot nematodes,"[1]; 200 ppm, 3 days",13
same,Nematocidal efficiency (%),[1]; 200 ppm,86.7%
same,Number of killed root-knot nematodes,"[1]; 333 ppm, 1 day",5
same,Number of killed root-knot nematodes,"[1]; 333 ppm, 2 days",6
same,Number of killed root-knot nematodes,"[1]; 333 ppm, 3 days",15
same,Nematocidal efficiency (%),[1]; 333 ppm,100%
same,Number of killed root-knot nematodes,"[1]; 500 ppm, 1 day",5
same,Number of killed root-knot nematodes,"[1]; 500 ppm, 2 days",10
same,Number of killed root-knot nematodes,"[1]; 500 ppm, 3 days",15
same,Nematocidal efficiency (%),[1]; 500 ppm,100%
same,Number of killed root-knot nematodes,"[1]; 1,000 ppm, 1 day",10
same,Number of killed root-knot nematodes,"[1]; 1,000 ppm, 2 days",15
same,Nematocidal efficiency (%),"[1]; 1,000 ppm",100%
same,Nematocidal efficiency (%),"[1]; 2,000 ppm",100%
same,Number of killed root-knot nematodes,"[1]; 3,000 ppm, 1 day",15
same,Nematocidal efficiency (%),"[1]; 3,000 ppm",100%
same,Number of killed root-knot nematodes,"[1]; 10,000 ppm, 1 day",15^a
same,Nematocidal efficiency (%),"[1]; 10,000 ppm",100%
same,Nematocidal efficiency on root-knot nematodes (%),[1]; 1 day,72.5%
same,Nematocidal efficiency on root-knot nematodes (%),[1]; 2 days,93.6%
same,Nematocidal efficiency on root-knot nematodes (%),[1]; 3 days,100.0%
same,Nematocidal effect of geraniol alone relative to palmarosa oil containing the same amount of geraniol,[1]; same geraniol content (685 ppm),about 4.2 times
same,Number of killed nematodes,spiral nematodes; 1 day,7
same,Number of killed nematodes,spiral nematodes; 2 days,9
same,Number of killed nematodes,spiral nematodes; 3 days,13
same,Nematocidal efficiency,spiral nematodes; within 3 days,86.7%
same,Number of killed nematodes,cyst nematodes; 1 day,8
same,Number of killed nematodes,cyst nematodes; 2 days,11
same,Number of killed nematodes,cyst nematodes; 3 days,12
same,Nematocidal efficiency,cyst nematodes; within 3 days,80%
"C/C=C(\C)C(=O)O[C@H]1C[C@@H](OC(C)=O)[C@@]2(C(=O)OC)CO[C@H]3[C@@H](O)[C@@](C)([C@]45O[C@@]4(C)[C@H]4C[C@@H]5O[C@@H]5OC=C[C@@]54O)[C@H]4[C@]1(CO[C@]4(O)C(=O)OC)[C@@H]32 [Azadirachtin, azadirachtin, reference compound]",Number of killed root-knot nematodes,"[1]; 2,000 ppm, 1 day",7
same,Number of killed root-knot nematodes,"[1]; 2,000 ppm, 2 days",8
same,Number of killed root-knot nematodes,"[1]; 2,000 ppm, 3 days",10
same,Nematocidal efficiency (%),"[1]; 2,000 ppm",66.7%
pyrethrin [reference compound],Number of killed root-knot nematodes,"[1]; 2,000 ppm, 1 day",5
same,Number of killed root-knot nematodes,"[1]; 2,000 ppm, 2 days",6
same,Number of killed root-knot nematodes,"[1]; 2,000 ppm, 3 days",11
same,Nematocidal efficiency (%),"[1]; 2,000 ppm",73.3%
"O=C1CCC[C@@H]2[C@H]3CCC[N+]4([O-])CCC[C@@H](CN12)[C@@H]34 (stereo partly shown) [Oxymatrine, oxymatrine, reference compound]",Number of killed root-knot nematodes,"[1]; 2,000 ppm, 1 day",7
same,Number of killed root-knot nematodes,"[1]; 2,000 ppm, 2 days",9
same,Number of killed root-knot nematodes,"[1]; 2,000 ppm, 3 days",10
same,Nematocidal efficiency (%),"[1]; 2,000 ppm",66.7%
